Where two headings read alike, the source gives them in different places. Values belong to the molecule of their own block, whether it stands above or below them.
How the values were obtained:
[1] = system: MRSA strains; assay: MIC by agar dilution or microbroth dilution method (NCCLS); type: cell-based, Staph. aureus; design: MIC50: unit not given beside the values; settings: for MIC: Staphylococcus aureus
Protocol: (§1) Bacterial isolates were obtained from human infections. The isolates were maintained frozen in a liquid nitrogen freezer and plated on Trypticase Soy Agar (TSA) plates supplemented with 5% sheep blood. The quality control strain Staph. aureus 29213 was originally acquired from the American Type Culture Collection (Rockville, Md.).
(§2) MICs were determined by an agar dilution method or microbroth dilution method recommended by NCCLS. Synergy was assessed by agar dilution checker-board method. Minimal inhibitory concentrations (MICS) for each separate drug were determined. The fractional inhibitory concentration (FIC) values were calculated by the MIC of Drug A (e.g., sulbactam/ampicillin) and Drug B (e.g., linezolid or arbekacin) in combination/MIC of Drug A or B alone. The FIC index was determined according to the following formula: [formula]

[2] = system: VRSA strains; assay: MIC by agar dilution or microbroth dilution method (NCCLS), VRSA strains; type: cell-based, Staph. aureus; settings: VRSA strains (n = 10); for MIC: Staphylococcus aureus
Protocol: as §1, §2
In total, 48 MRSA strains were tested, including ten VRSA strains isolated from five different countries in the world, 33 MRSA strains isolated from ten Japanese university hospitals, and five MRSA type strains from Juntendo University, Department of Bacteriology, Tokyo, Japan.

[3] = system: Staph. aureus 29213; assay: MIC, quality control strain; type: cell-based; settings: Staphylococcus aureus, read-out: MIC Values
Protocol: as §1, §2

[4] = MRSA / NCTC 10442, strain NCTC 10442, read-out: MIC Values
[5] = MRSA, MRSA strains (n = 38), read-out: MICs 50%
[6] = MRSA, MRSA strains (n = 38), read-out: MICs 90%
[7] = MRSA, strain 85/2082, read-out: MIC Values
[8] = MRSA, strain 99.3700W, read-out: MIC Values
[9] = MRSA, strain 99.3759V, read-out: MIC Values
[10] = MRSA, strain AMC 11094, read-out: MIC Values
[11] = MRSA, strain BM12612(new), read-out: MIC Values
[12] = MRSA, strain H1, read-out: MIC Values
[13] = MRSA, strain HIP 5827, read-out: MIC Values
[14] = MRSA, strain HIP 5836, read-out: MIC Values
[15] = MRSA, strain HIP 6297, read-out: MIC Values
[16] = MRSA, strain HIP 7737, read-out: MIC Values
[17] = MRSA, strain JSCC 340, read-out: MIC Values
[18] = MRSA, strain JSCC 351, read-out: MIC Values
[19] = MRSA, strain JSCC 363, read-out: MIC Values
[20] = MRSA, strain JSCC 381, read-out: MIC Values
[21] = MRSA, strain JSCC 390, read-out: MIC Values
[22] = MRSA, strain JSCC 401, read-out: MIC Values
[23] = MRSA, strain JSCC 413, read-out: MIC Values
[24] = MRSA, strain JSCC 431, read-out: MIC Values
[25] = MRSA, strain JSCC 440, read-out: MIC Values
[26] = MRSA, strain JSCC 451, read-out: MIC Values
[27] = MRSA, strain JSCC 463, read-out: MIC Values
[28] = MRSA, strain JSCC 481, read-out: MIC Values
[29] = MRSA, strain JSCC 490, read-out: MIC Values
[30] = MRSA, strain JSCC 501, read-out: MIC Values
[31] = MRSA, strain JSCC 513, read-out: MIC Values
[32] = MRSA, strain JSCC 531, read-out: MIC Values
[33] = MRSA, strain JSCC 540, read-out: MIC Values
[34] = MRSA, strain JSCC 551, read-out: MIC Values
[35] = MRSA, strain JSCC 563, read-out: MIC Values
[36] = MRSA, strain JSCC 581 (lacks the mecA gene), read-out: MIC Values
[37] = MRSA, strain JSCC 590 (lacks the mecA gene), read-out: MIC Values
[38] = MRSA, strain JSCC 601, read-out: MIC Values
[39] = MRSA, strain JSCC 640, read-out: MIC Values
[40] = MRSA, strain JSCC 651, read-out: MIC Values
[41] = MRSA, strain JSCC 663, read-out: MIC Values
[42] = MRSA, strain JSCC 681, read-out: MIC Values
[43] = MRSA, strain JSCC 690, read-out: MIC Values
[44] = MRSA, strain JSCC 701, read-out: MIC Values
[45] = MRSA, strain JSCC 713, read-out: MIC Values
[46] = MRSA, strain JSCC 731, read-out: MIC Values
[47] = MRSA, strain JSCC 740, read-out: MIC Values
[48] = MRSA, strain JSCC 751, read-out: MIC Values
[49] = MRSA, strain JSCC 763, read-out: MIC Values
[50] = MRSA, strain JSCC 781, read-out: MIC Values
[51] = MRSA, strain JSCC 870, read-out: MIC Values
[52] = MRSA, strain LIM 2, read-out: MIC Values
[53] = MRSA, strain Mu 3, read-out: MIC Values
[54] = MRSA, strain Mu 50, read-out: MIC Values
[55] = MRSA, strain N315, read-out: MIC Values
[56] = ATCC29213, strain ATCC 29213, control sample (Ex. 26)
[57] = ATCC29213, strain ATCC29213, control sample (Ex. 37)

MICs Range ([1]; MRSA strains (n = 38)): 0.125 to 4 mg/L
MIC [1, 4]: 0.125 µg/mL
MIC [1, 5]: 0.5 µg/mL
MIC [1, 6]: 2 µg/mL
MIC [1, 7]: 0.25 µg/mL
MIC [1, 8]: 4 µg/mL
MIC [1, 9]: 2 µg/mL
MIC [1, 10]: 0.25 µg/mL
MIC [1, 11]: 2 µg/mL
MIC [1, 12]: 1 µg/mL
MIC [1, 13]: 1 µg/mL
MIC [1, 14]: 1 µg/mL
MIC [1, 15]: 0.125 µg/mL
MIC [1, 16]: 0.125 µg/mL
MIC [1, 17]: 1 µg/mL
MIC [1, 18]: 1 µg/mL
MIC [1, 19]: 1 µg/mL
MIC [1, 20]: 0.5 µg/mL
MIC [1, 21]: 0.5 µg/mL
MIC [1, 22]: 0.5 µg/mL
MIC [1, 23]: 1 µg/mL
MIC [1, 24]: 1 µg/mL
MIC [1, 25]: 0.25 µg/mL
MIC [1, 26]: 4 µg/mL
MIC [1, 27]: 0.5 µg/mL
MIC [1, 28]: 1 µg/mL
MIC [1, 29]: 0.5 µg/mL
MIC [1, 30]: 0.5 µg/mL
MIC [1, 31]: 0.25 µg/mL
MIC [1, 32]: 0.5 µg/mL
MIC [1, 33]: 1 µg/mL
MIC [1, 34]: 2 µg/mL
MIC [1, 35]: 0.125 µg/mL
MIC [1, 36]: 0.5 µg/mL
MIC [1, 37]: 0.25 µg/mL
MIC [1, 38]: 0.25 µg/mL
MIC [1, 39]: 2 µg/mL
MIC [1, 40]: 1 µg/mL
MIC [1, 41]: 0.5 µg/mL
MIC [1, 42]: 1 µg/mL
MIC [1, 43]: 2 µg/mL
MIC [1, 44]: 1 µg/mL
MIC [1, 45]: 2 µg/mL
MIC [1, 46]: 0.5 µg/mL
MIC [1, 47]: 0.125 µg/mL
MIC [1, 48]: 2 µg/mL
MIC [1, 49]: 0.25 µg/mL
MIC [1, 50]: 2 µg/mL
MIC [1, 51]: 0.5 µg/mL
MIC [1, 52]: 1 µg/mL
MIC [1, 53]: 2 µg/mL
MIC [1, 54]: 4 µg/mL
MIC [1, 55]: 0.5 µg/mL
MIC ([2]; read-out: MICs 50%): 1 µg/mL
MIC ([2]; read-out: MICs 90%): 4 µg/mL
MICs Range [2]: 0.125 to 4 mg/L
MIC [3, 56]: 0.25 µg/mL
MIC [3, 57]: 0.25 µg/mL
Structure (SMILES): NCC[C@H](O)C(=O)N[C@@H]1C[C@H](N)[C@@H](O[C@H]2O[C@H](CN)CC[C@H]2N)[C@H](O)[C@H]1O[C@H]1O[C@H](CO)[C@@H](O)[C@H](N)[C@H]1O [ABK, arbekacin]

MIC [1, 4]: < 128 µg/mL
MIC [1, 5]: 16 µg/mL
MIC [1, 6]: 64 µg/mL
MIC [1, 7]: 32 µg/mL
MIC [1, 8]: 32 µg/mL
MIC [1, 9]: 64 µg/mL
MIC [1, 10]: 16 µg/mL
MIC [1, 11]: 64 µg/mL
MIC [1, 12]: 16 µg/mL
MIC [1, 13]: 64 µg/mL
MIC [1, 14]: 16 µg/mL
MIC [1, 15]: 16 µg/mL
MIC [1, 16]: 32 µg/mL
MIC [1, 17]: 64 µg/mL
MIC [1, 18]: 32 µg/mL
MIC [1, 19]: 16 µg/mL
MIC [1, 20]: 32 µg/mL
MIC [1, 21]: 32 µg/mL
MIC [1, 22]: 128 µg/mL
MIC [1, 23]: 16 µg/mL
MIC [1, 24]: 64 µg/mL
MIC [1, 25]: 32 µg/mL
MIC [1, 26]: 16 µg/mL
MIC [1, 27]: 16 µg/mL
MIC [1, 28]: 64 µg/mL
MIC [1, 29]: 64 µg/mL
MIC [1, 30]: 32 µg/mL
MIC [1, 31]: 16 µg/mL
MIC [1, 32]: 32 µg/mL
MIC [1, 33]: 32 µg/mL
MIC [1, 34]: 16 µg/mL
MIC [1, 35]: 1 µg/mL
MIC [1, 36]: 0.5 µg/mL
MIC [1, 37]: 0.5 µg/mL
MIC [1, 38]: 16 µg/mL
MIC [1, 39]: 16 µg/mL
MIC [1, 40]: 64 µg/mL
MIC [1, 41]: 16 µg/mL
MIC [1, 42]: 16 µg/mL
MIC [1, 43]: 16 µg/mL
MIC [1, 44]: 32 µg/mL
MIC [1, 45]: 16 µg/mL
MIC [1, 46]: 32 µg/mL
MIC [1, 47]: 16 µg/mL
MIC [1, 48]: 64 µg/mL
MIC [1, 49]: 8 µg/mL
MIC [1, 50]: 16 µg/mL
MIC [1, 51]: 32 µg/mL
MIC [1, 52]: 32 µg/mL
MIC [1, 53]: 32 µg/mL
MIC [1, 54]: 32 µg/mL
MIC [1, 55]: 8 µg/mL
MIC ([2]; read-out: MICs 50%): 32 µg/mL
MIC ([2]; read-out: MICs 90%): 64 µg/mL
MICs Range [2]: 16 to 64 mg/L
MIC [3, 56]: 0.5 µg/mL
MIC [3, 57]: 0.25 µg/mL
Structure (SMILES): CC1(C)SC2C(NC(=O)C(N)c3ccccc3)C(=O)N2C1C(=O)O (stereo not drawn) [ABPC, α-aminobenzylpenicillin]

Structure (SMILES): CC(=O)NC[C@H]1CN(c2ccc(N3CCOCC3)c(F)c2)C(=O)O1 [LZD, (S)-N-[[3-[3-fluoro-4-(4-morpholinyl)phenyl]-2-oxo-5-oxazolidinyl]methyl]acetamide]
MIC50 ([1]; 48 MRSA strains tested, including ten VRSA strains): 2
MICs Range ([1]; MRSA strains (n = 38)): 0.5 to 2 mg/L
MIC [1, 4]: 2 µg/mL
MIC [1, 5]: 2 µg/mL
MIC [1, 6]: 2 µg/mL
MIC [1, 7]: 2 µg/mL
MIC [1, 8]: 2 µg/mL
MIC [1, 9]: 2 µg/mL
MIC [1, 10]: 2 µg/mL
MIC [1, 11]: 2 µg/mL
MIC [1, 12]: 2 µg/mL
MIC [1, 13]: 2 µg/mL
MIC [1, 14]: 2 µg/mL
MIC [1, 15]: 2 µg/mL
MIC [1, 16]: 2 µg/mL
MIC [1, 17]: 2 µg/mL
MIC [1, 18]: 2 µg/mL
MIC [1, 19]: 2 µg/mL
MIC [1, 20]: 2 µg/mL
MIC [1, 21]: 2 µg/mL
MIC [1, 22]: 2 µg/mL
MIC [1, 23]: 2 µg/mL
MIC [1, 24]: 2 µg/mL
MIC [1, 25]: 2 µg/mL
MIC [1, 26]: 2 µg/mL
MIC [1, 27]: 2 µg/mL
MIC [1, 28]: 2 µg/mL
MIC [1, 29]: 2 µg/mL
MIC [1, 30]: 2 µg/mL
MIC [1, 31]: 1 µg/mL
MIC [1, 32]: 1 µg/mL
MIC [1, 33]: 1 µg/mL
MIC [1, 34]: 2 µg/mL
MIC [1, 35]: 1 µg/mL
MIC [1, 36]: 2 µg/mL
MIC [1, 37]: 2 µg/mL
MIC [1, 38]: 1 µg/mL
MIC [1, 39]: 1 µg/mL
MIC [1, 40]: 2 µg/mL
MIC [1, 41]: 2 µg/mL
MIC [1, 42]: 0.5 µg/mL
MIC [1, 43]: 1 µg/mL
MIC [1, 44]: 1 µg/mL
MIC [1, 45]: 2 µg/mL
MIC [1, 46]: 1 µg/mL
MIC [1, 47]: 2 µg/mL
MIC [1, 48]: 2 µg/mL
MIC [1, 49]: 2 µg/mL
MIC [1, 50]: 2 µg/mL
MIC [1, 51]: 2 µg/mL
MIC [1, 52]: 1 µg/mL
MIC [1, 53]: 2 µg/mL
MIC [1, 54]: 2 µg/mL
susceptibility (range of MICs) ([1]; all tested MRSA isolates, including VRSA strains): susceptible range of MICs
MIC ([2]; read-out: MICs 50%): 2 µg/mL
MIC ([2]; read-out: MICs 90%): 2 µg/mL
MICs Range [2]: 1 to 2 mg/L
MIC [3, 56]: 2 µg/mL
MIC [3, 57]: 2 µg/mL

From patent US6544991B2, “Compositions and methods for treating bacterial infections” (priority 2000, dated 2003)
